Our source for the melting point values is a melting point compilation (Tetko et al.; mined from patent text by program, amines drawn as free bases though some values may be those of a salt).

A word on the melting point: it is the temperature of the solid-liquid transition.

In turn, `Cc1cc(-c2cc(C(F)F)n3ncc(C(=O)Nc4cccc(S(=O)(=O)N5CCN(C)CC5)c4)c3n2)ccc1C(F)(F)F` gave a melting point of 198 °C.

On to `COc1ccc(N(S(=O)(=O)c2ccc(C)cc2)S(=O)(=O)c2ccc(C)cc2)c([N+](=O)[O-])c1`, for which the melting point was 180 to 182 °C.

Turning to `COc1ccccc1N1CCN(CCOc2ccc(-c3cn4ccccc4n3)cc2)CC1`, the melting point was in the range of 151 to 153 °C.

`COC(OC)C(=O)NC1CCN(C[C@@]23C[C@@H](c4ccccc42)c2ccc(Cl)cc23)CC1` gave a melting point of 188 to 189 °C.

The compound `COc1cc(OC)cc(C(=O)N2CCc3cc(OCc4ccccc4)c(OC)cc3C2)c1` returned a melting point of 130 to 131 °C.

As to `Oc1ccc(-c2noc3cc(O)ccc23)c(O)c1`, the melting point lay in the range of 300 to 305 °C.

Take `C#Cc1c(C#N)nn(-c2c(Cl)cc(C(F)(F)F)cc2Cl)c1N(C)C`: the melting point lay within 145 to 147 °C.

In the case of `CCOc1ccc(C(=O)C=Cc2ccc(SC)cc2)cc1`, the melting point amounted to 108 °C.

`CCCCOCCCNC(=O)c1cnc(C(=O)NCC(=O)OCc2ccccc2)c(OC)c1` yielded a melting point of 97 to 99 °C.

On to `CC(C)(C)OC(=O)NCc1cc(C(C)(C)C)cc(I)c1O`, for which the melting point is 196 to 197 °C.

Compound `O=C(NC(=O)c1ccccc1)NC1CCN(Cc2ccccc2)CC1` registered a melting point of 179 to 180 °C.

`CC(C)C(=O)NCCNCC(O)COc1ccccc1` (single isomer, unassigned; (-)) returned a melting point of 89 to 91 °C.

Take `CCOC(=O)Nc1nc(C)c(-c2nc3ccccc3c(=O)n2-c2cccc(Cl)c2)s1`: the melting point lay within 262 to 263 °C.

Turning to `N#CCCNC(=O)c1ccnc(-c2cccc3nn(Cc4cccc(C(F)(F)F)c4)cc23)c1`, the melting point is 147 to 148 °C.

Consider `CCC(CC)C(c1ccnn1-c1ccccc1)N(C)S(=O)(=O)c1ccc(Cl)c(Cl)c1` (stereo unspecified), for which the melting point lay in the range of 102 to 104 °C.

The compound `O=C(O)c1ccc(NC(=O)C(CC2CCCC2)c2ccc(-c3cccc4ccccc34)cc2)nc1` (stereo unspecified) came in with a melting point of 155 to 158 °C.

`CCOC(=O)c1c(Cn2cncn2)nc2sc3ncccc3c2c1-c1ccc(OC)c(OC)c1`: the melting point was in the range of 180 to 182 °C.

In the case of `CC(C)(C)OC(=O)N1CCN(CCO[Si](C)(C)C(C)(C)C)C1=O`, the melting point lay in the range of 35.5 to 45.5 °C.

Compound `COC(=O)c1c(-c2ccc(Cl)cc2)ccnc1Sc1nc(OC)cc(OC)n1` had a melting point of 138 to 142 °C.

Consider `Cc1ccc(NC(=O)c2c(Cl)cccc2Cl)c2nccc(Cl)c12`, for which the melting point was 258 to 260 °C.

`COc1ccc(OC2COc3ccc(OC(C)c4ccc5ccccc5n4)cc3C2O)cc1` (stereo unspecified) yielded a melting point of 81 to 85 °C.

In the case of `CCOC(=O)/C(=C\Nc1cc(OC)ccc1OC)c1ccc(OC)cc1`, the melting point lay within 65 to 66 °C.

`Cc1sc(-c2ccccc2)nc1COc1cc(COc2ncccc2CC#N)on1`: the melting point was in the range of 103 to 104 °C.

In the case of `CC(=O)Oc1ccc(C2COc3c(ccc(OC(C)=O)c3C)C2O)cc1` (stereo unspecified), the melting point was 135 to 137 °C.

Take `Cc1cc(C)c2cccc(OCc3c(Cl)ccc(S(=O)(=O)N4CCC[C@H]4C(=O)NCc4cccc(C(N)=S)c4)c3Cl)c2n1`: the melting point fell in the range of 116 to 118 °C.

Regarding `O=C(Nc1ccc(-n2nc(C(F)(F)F)cc2C2CC2)c(F)c1)C1(c2ccccc2)CCC1`, the melting point is 72 to 76 °C.

As for `O=C(N[C@@H](Cc1ccccc1)C(=O)COC(=O)N1CCC[C@H]1C(=O)O)c1ccccc1`, the melting point was 55 to 65 °C.

As to `CC12C=CC(=O)C=C1CCC1C3CC(OCCOC4CCCCO4)C(O)(C(=O)CCl)C3(C)CC(O)C12F` (stereo unspecified), the melting point was 168 to 170 °C.

The compound `CC(C)(CNc1ccc(C(=O)CCC(=O)O)cc1)[N+](=O)[O-]` came in with a melting point of 198 to 200 °C.

Turning to `CC(=O)OCC(=O)C1(OC(C)=O)CCC2C3C=C(C)C4=CC(=O)CCC4(C)C3CCC21C` (stereo unspecified), the melting point was in the range of 213 to 215 °C.

In turn, `CC1CSC2=C(O1)c1cc(N3CCCCC3)ccc1C(=O)C2=O` (stereo unspecified) had a melting point of 225 to 226 °C.

In turn, `COC(=O)c1cc(C(=O)NCC(N)=O)c2cc(Cc3ccc(F)cc3)cnc2c1O` displayed a melting point of 247 to 248 °C.

With `CC(=O)N1CCN(C2CCN(c3ccc(NC(=O)c4cnn(-c5ccc(Cl)cc5)c4C)cc3C#N)CC2)CC1`, the melting point is 247 °C.

Consider `CC[C@H]1CN(c2c(F)c(N)c3c(=O)c(C(=O)O)cn(C4CC4)c3c2F)C[C@H]1CNCCC(=O)C(F)(F)F` (relative stereo), for which the melting point was in the range of 145 to 146 °C.

`FC(F)(F)c1cc(Nc2nc3ccccc3o2)ccc1Br` displayed a melting point of 211 to 212 °C.

In turn, `O=C1c2c(O)cccc2OC12CC2` registered a melting point of 100 to 109 °C.

As to `CC(C)(C)c1nc2cc(N3CCN(S(C)(=O)=O)CC3)c([N+](=O)[O-])cc2s1`, the melting point fell in the range of 195 to 197 °C.

`CCOC(=O)c1nc2ccc(Cl)nn2c1C` came in with a melting point of 170 to 171 °C.

Take `O=C1N(c2ccc(Cl)cc2F)C(=S)C2CCCCC12O` (stereo unspecified): the melting point was in the range of 156 to 157 °C.

With `O=C(NCCc1c2n(c3ccc(O)nc13)CCCc1ccccc1-2)c1ccco1`, the melting point is more than 260 °C.

The compound `CC(=O)Nc1ccc(C=O)c(C)c1C#N` gave a melting point of 170 to 173 °C.

`CCCCc1oc2ccccc2c1C(=O)N(Cc1ccccc1)Cc1ccc2cc(O)ccc2c1` had a melting point of 160 to 164 °C.

`Cc1nnc(NCc2ccccc2)s1` registered a melting point of 140 °C.

`CCCCCCCCCCCCCCCCC(O)CBr` (stereo unspecified) had a melting point of 53.5 to 54.5 °C.

The compound `O=C(CC1CCOCC1)N[C@H]1CC[C@H](CCN2CCC(c3cccc4c3CCO4)CC2)CC1` yielded a melting point of 191 °C.

In the case of `CCn1c(=O)c2[nH]c(/C=C/c3ccc(F)c(Cl)c3)nc2n(CC)c1=O`, the melting point was more than 270 °C.

In turn, `N#Cc1ccc(-c2ccc(Br)o2)cc1` came in with a melting point of 94 to 94.5 °C.

In turn, `COc1ccc(Nc2nc(Nc3ccc(OC)c(Cl)c3)nc(OCC3CCCCC3)n2)cc1Cl` yielded a melting point of 188 °C.

With `FC(F)(F)c1cccc(N2CCN(Cc3ccc(-c4ccccc4)o3)CC2)c1`, the melting point turned out to be 56 °C.

Regarding `CCCCCCCC(=O)NCCCCCO`, the melting point lay within 62 to 63 °C.

`Cc1[nH]c(C(=O)NCc2ccc(Cl)c(Cl)c2)c(C)c1-c1nc2ccc(C(=O)c3ccccc3)cc2[nH]1` gave a melting point of 141 to 143 °C.

`C=CCNc1nc(NC)c2cc([N+](=O)[O-])ccc2n1` came in with a melting point of 211 to 212 °C.

For `COc1ccc(-c2cccc3ccsc23)cc1`, the melting point was 74 to 75 °C.

As to `O=C(NCCO)c1ccc(CCCc2ccccc2CCc2ccccc2)cc1`, the melting point fell in the range of 104 to 106 °C.

With `Cc1c(C)c2c(c(C)c1OCc1ccncc1)C(c1ccc(C(C)C)cc1)C1(CCN(C)CC1)O2` (stereo unspecified), the melting point fell in the range of 96 to 98 °C.

`CC(C)(C(=O)c1ccc(SCCO)cc1)N1CCOCC1` returned a melting point of 62 to 64 °C.

`CNC(=O)c1ccc2c(c1)CCOC2CCN1CCN(c2ccc(OC)cc2)CC1` (stereo unspecified): the melting point was in the range of 174 to 176 °C.

Compound `COc1ccc(C(=O)Nc2c(Cl)cncc2Cl)c2c1OC(C)C2C(=O)C1NCCc2ccccc21` (stereo unspecified) came in with a melting point of 211 to 213 °C.

In turn, `N=C(Nc1ccc2c(c1)CN1CCOCC1C2)c1cccs1` (stereo unspecified) came in with a melting point of 190 to 194 °C.

For `COc1ccc(S(=O)(=O)N2C(=O)C(c3ccccc3OC)(N3C[C@H](OC)C[C@H]3C(=O)N(C)C)c3cc(Cl)ccc32)c(OC)c1` (stereo partly specified), the melting point lay within 189 to 191 °C.

Consider `CN1CCC(c2c(O)cc(O)c3c(=O)cc(-c4ccccc4Cl)oc23)C1C(=O)O` (stereo unspecified), for which the melting point is 295 to 297 °C.

`CCCOC1=C(c2ccccc2)C(CCC(=O)O)OC1=O` (stereo unspecified): the melting point is 123 to 125 °C.

For `NC1=NN(c2ccc(Cl)c(Cl)c2)CC1`, the melting point lay in the range of 182 to 184 °C.

On to `CCN(CC)c1ccc([N+](=O)[O-])c(C(=O)NCC2CCN(C(c3ccccc3)c3ccccc3)CC2)c1`, for which the melting point lay within 167 to 168 °C.

With `CN[C@@H]1COc2cc(Cl)cc(-c3ccc(Cl)cc3Cl)c2O1`, the melting point was determined as 140 °C.

For `Cc1ccccc1C=C1CCn2c1nc1ccc(C(N)=O)cc1c2=O`, the melting point lay in the range of 347 to 349 °C.

Take `CN1Cc2c(C(N)=O)ncn2-c2sccc2C1=O`: the melting point was more than 250 °C.

As to `CC(C)(C)c1cc(CCc2nnc(N)o2)cc(C(C)(C)C)c1O`, the melting point is 220 to 221 °C.

With `O=C(NCC(F)(F)F)C1(CCCc2ccccc2)c2ccccc2-c2ccccc21`, the melting point lay within 86 to 88 °C.

Compound `CCCCCCCCCCC=CCc1c[nH]c(C=O)c1` came in with a melting point of 29 to 32 °C.

`CN(C)CC(C)(C)C(NC(=O)c1ccc(Cl)cc1)NC(=NC#N)Nc1cccnc1` (stereo unspecified) showed a melting point of 101 to 103 °C.

On to `Cn1c(NCCCOc2cccc(CN3CCCCC3)c2)nc2ccccc21`, for which the melting point fell in the range of 153 to 154 °C.

Consider `O=C(Nc1cccnc1)C(Cl)(Cl)Cl`, for which the melting point lay within 149 to 151 °C.

`COc1ccc(CNc2nc(Cl)ncc2C(=O)c2ccccn2)cc1Cl` yielded a melting point of 117 to 119 °C.

In the case of `CCCCCCCCCCCCn1c2cc(Br)ccc2c2ccc(Br)cc21`, the melting point fell in the range of 78 to 79 °C.

Turning to `NS(=O)(=O)c1nc2ccc(OCC(O)CO)cc2s1` (stereo unspecified), the melting point was 183 to 185 °C.

As for `C[C@]12CCC(=O)N[C@@H]1CCc1cc(Sc3ccc(F)cc3)ccc12`, the melting point fell in the range of 179 to 181 °C.

`CCCn1c(=O)c2[nH]c(C34CC5CC3CC(C4)C5=O)nc2n(CCC)c1=O` registered a melting point of 172 to 174 °C.

`CN1C2CCCC1CC(NC(=O)c1cccc3oc(-c4ccc(Cl)cc4)nc13)C2` (stereo unspecified) showed a melting point of 185 to 187 °C.

For the compound `CC1COc2c(C3CC3)c(F)c(N)c3c(=O)c(C(=O)O)cn1c23` (stereo unspecified), the melting point was more than 280 °C.

In the case of `CCCC(N)CC(=O)O` (stereo unspecified), the melting point is 203 °C.

As for `CCc1c(C(=O)OC)c(C(F)(F)F)nc(C(F)(F)F)c1C(=O)OC`, the melting point was 45 to 47 °C.

For `CC(C)(ON1C(C)(C)CC(OC(=O)c2ccccc2)CC1(C)C)c1ccccc1`, the melting point was in the range of 105 to 108 °C.

In turn, `CCOC(=O)c1cc2cc([Si](C)(C)C)ccc2n1Cc1cccc(F)c1` had a melting point of 80 to 82 °C.

Compound `COc1cc(Cc2cnc(N)nc2N)cc2c(C)ccnc12` displayed a melting point of 287 to 290 °C.

Compound `Oc1ncnc2nc(C(F)(F)F)ccc12` came in with a melting point of 268 to 269 °C.
